Earlier results, collected in patent publication US20180147141A1, “CHEWING GUM COMPOSITION COMPRISING CANNABINOIDS AND GABAPENTIN” (AXIM Biotechnologies, Inc., priority 2016, published 2018).

Tested on: GABA receptors
Conditions: at concentrations at or below 1 millimolar

SMILES: NCC1(CC(=O)O)CCCCC1 [Gabapentin, 1-(aminomethyl)cyclohexaneacetic acid]
- binding to GABA receptors: has not been shown to bind
